According to US10538561B2, “Peptide for treating inflammatory diseases” (priority 2015, dated 2020):

Assays:
[1] = system: HaCaT (Human keratinocyte); test: LDH enzyme release assay; format: cell-based
Description: For testing Apoptosis the Human Keratinocytes (HaCaT) cell line has been employed. The growth conditions are DMEM containing 1% FBS. […] Test concentration range is IS181 is tested at the highest (Qualitative analysis) effective concentrations selected on the basis of Quantitative JC-1 assay. The method of estimation is Mitochondrial membrane depolarization by JC-1 assay (Early apoptosis), LDH enzyme release (Necrosis). Treatment regimen & time points are JC-1 assay—Single addition, 20 h; LDH assay—Single addition, 24 h; Positive control: Triton-X-100, Doxorubicin-hydrochloride
End-point: Percentage increase in LDH activity in treated cells with respect to untreated.

[2] = system: Human Keratinocytes (HaCaT); test: DNA fragmentation assay in HaCaT; format: cell-based; details: 48 h
Description: Cells were lysed and fragmented DNA was precipitated using PEG/NaCl solution. The fragmented DNA was incubated with 0.2 μg/ml of Hoechst 33258 dye and fluorescence was read at 360 ex/460 em. End point: Percentage induction of DNA fragmentation with respect to untreated Positive control. Anthralin. IS 181 led to induction of DNA fragmentation in HaCaT cells at all the concentrations tested except at 100 μg/ml. […] The overall effect of IS 181 on induction of DNA fragmentation with respect to untreated in HaCaT cells ranged from −18.8% to 83.3%. (FIG. 8 and Table-6).

[3] = system: IL-17; test: IL-17 secretion in ConA stimulated splenocytes; format: cell-based, mouse; design: inhibition of IL-17 secretion as compared to Control (ConA) levels: dose or concentration left out as unconfirmed; details: for % Inhibition of IL-17 wrt Control (ConA) / Conc. of IL-17: splenocytes + ConA, 24 h
Description: Cell lines: mouse splenocytes; test item: IS181; treatment regimen: single addition—24 hours; concentration range: 10 μg/ml-5000 μg/ml.A) Identification of non-cytotoxic concentrations: splenocytes were treated with IS181 for 24 hours. Effect on cell viability was assessed by MTT assay. Concentrations leading to >75% cell viability were selected for IL-17 assay. B) IL-17 assay: splenocytes were treated with IS181 in presence of ConA stimulation for 24 hours. Supernatants were collected and stored at −20° C. till analysed. Levels of IL-17 were analysed in supernatants by ELISA. Percent inhibition of IL-17 secretion was calculated with reference to ConA treated levels. Positive control: curcumin.

[4] = Cell viability (MTT assay) in SK-MEL-28; format: cell-based, Human; details: human, SK-MEL-28 melanoma cells
Description: (§1) Cell Lines/Cells: Human Keratinocytes (HaCaT); Human melanoma (SK-MEL-28); Human PBMCs. Test Item: IS181 Treatment regimen: Single addition—24 h, ^#Multiple additions (3)−72 h; Concentration range: 1 ng/ml-2 mg/ml (triplicate wells); Sera Condition: […] Method of estimation: MTT assay. […] Positive control: Triton-X-100, Doxorubicin Hydrochloride.

[5] = system: Human melanoma (SK-MEL-28); test: Cell viability (MTT assay) in SK-MEL-28; format: cell-based
Description: as §1

[6] = system: Human endothelial cells (EA.hy 926); test: DNA fragmentation in endothelial cells; format: cell-based; details: for % induction of DNA fragmentation: EA.hy926, 48 h
Description: Cell lines: Human endothelial cells (EA.Hy 926); test item: IS 181; treatment regimen: multiple additions (2)—48 hours; concentration range: 100 μg/ml to 5000 μg/ml (Duplicate wells); sera condition: medium containing 1% FBS. […] Cells were lysed and fragmented DNA was precipitated using PEG/NaCl solution. The fragmented DNA was incubated with 0.2 μg/ml of Hoechst 33258 dye and fluorescence was read at 360 ex/460 em. End point: Percentage induction of DNA fragmentation with respect to untreated. Positive control: anthralin. IS 181 led to induction of DNA fragmentation in Ea.hy.926 cells at all the concentrations tested. […] The overall effect of IS 181 on induction of DNA fragmentation with respect to untreated in Ea.hy.926 cells ranged from 15.09% to 64.15% (FIGS. 10A-10B and Table-10).

H-WVQRVVEKFLK-OH [IS181, H-Trp-Val-Gln-Arg-Val-Val-Glu-Lys-Phe-Leu-Lys-OH]
increase in LDH enzyme activity with respect to untreated ([1]; 750 μg/ml to 2 mg/ml): ≥ 90% | % Increase with respect to untreated (LDH) ([1]; 24 h, 400 μg/ml): 26.03% | LDH Activity (mU/ml) ([1]; 24 h, 400 μg/ml): 79.73 mU/ml | % Increase with respect to untreated (LDH) ([1]; 24 h, 475 μg/ml): ***49.73% | LDH Activity (mU/ml) ([1]; 24 h, 475 μg/ml): 94.71 mU/ml | % Increase with respect to untreated (LDH) ([1]; 24 h, 500 μg/ml): **34.76% | LDH Activity (mU/ml) ([1]; 24 h, 500 μg/ml): 85.25 mU/ml | % Increase with respect to untreated (LDH) ([1]; 24 h, 750 μg/ml): ***90.43% | LDH Activity (mU/ml) ([1]; 24 h, 750 μg/ml): 120.47 mU/ml | % Increase with respect to untreated (LDH) ([1]; 24 h, 1000 μg/ml): ***116.28% | LDH Activity (mU/ml) ([1]; 24 h, 1000 μg/ml): 136.82 mU/ml | % Increase with respect to untreated (LDH) ([1]; 24 h, 2000 μg/ml): ***119.09% | LDH Activity (mU/ml) ([1]; 24 h, 2000 μg/ml): 138.60 mU/ml | increase in LDH enzyme release with respect to untreated ([1]; 24 h, concentrations around IC50 value): > 50% | % induction of DNA fragmentation ([2]; 100 μg/ml): −18.8% | overall effect on induction of DNA fragmentation with respect to untreated ([2]; 100 μg/ml to 5000 μg/ml): −18.8% to 83.3% | % induction of DNA fragmentation ([2]; 500 μg/ml): 35.4% | % induction of DNA fragmentation ([2]; 1000 μg/ml): 35.4% | % induction of DNA fragmentation ([2]; 2000 μg/ml): 27.1% | % induction of DNA fragmentation ([2]; 5000 μg/ml): 83.3% | inhibition of IL-17 secretion as compared to Control (ConA) levels ([3]; splenocytes): 48.2%-71.4% | % Inhibition of IL-17 wrt Control (ConA) ([3]; 10 μg/ml): 71.4% | Conc. of IL-17 ([3]; 10 μg/ml): 13.3 pg/mL | % Inhibition of IL-17 wrt Control (ConA) ([3]; 50 μg/ml): 59.5% | Conc. of IL-17 ([3]; 50 μg/ml): 18.8 pg/mL | % Inhibition of IL-17 wrt Control (ConA) ([3]; 100 μg/ml): 62.1% | Conc. of IL-17 ([3]; 100 μg/ml): 17.6 pg/mL | % Inhibition of IL-17 wrt Control (ConA) ([3]; 500 μg/ml): 48.2% | Conc. of IL-17 ([3]; 500 μg/ml): 24.1 pg/mL | % Inhibition of IL-17 wrt Control (ConA) ([3]; 1000 μg/ml): 58.8% | Conc. of IL-17 ([3]; 1000 μg/ml): 19.2 pg/mL | cytotoxicity at 24 h, 0.001 μg/ml ([4]; SK-MEL-28, 24 h, 0.001 μg/ml): -4.04% | cytotoxicity at 24 h, 0.01 μg/ml ([4]; SK-MEL-28, 24 h, 0.01 μg/ml): -1.91% | cytotoxicity at 24 h, 0.05 μg/ml ([4]; SK-MEL-28, 24 h, 0.05 μg/ml): 2.39% | cytotoxicity at 24 h, 0.1 μg/ml ([4]; SK-MEL-28, 24 h, 0.1 μg/ml): -4.93% | cytotoxicity at 24 h, 0.5 μg/ml ([4]; SK-MEL-28, 24 h, 0.5 μg/ml): -1.29% | cytotoxicity at 24 h, 1 μg/ml ([4]; SK-MEL-28, 24 h, 1 μg/ml): -12.5% | cytotoxicity at 24 h, 5 μg/ml ([4]; SK-MEL-28, 24 h, 5 μg/ml): -16.3% | cytotoxicity at 24 h, 10 μg/ml ([4]; SK-MEL-28, 24 h, 10 μg/ml): -14% | cytotoxicity at 24 h, 50 μg/ml ([4]; SK-MEL-28, 24 h, 50 μg/ml): -6.96% | cytotoxicity at 24 h, 100 μg/ml ([4]; SK-MEL-28, 24 h, 100 μg/ml): -2.97% | cytotoxicity at 24 h, 1000 μg/ml ([4]; SK-MEL-28, 24 h, 1000 μg/ml): -11.9% | cytotoxicity at 72 h, 0.1 μg/ml ([4]; SK-MEL-28, 72 h, 0.1 μg/ml): -10.9% | cytotoxicity at 72 h, 0.5 μg/ml ([4]; SK-MEL-28, 72 h, 0.5 μg/ml): -14.2% | cytotoxicity at 72 h, 1 μg/ml ([4]; SK-MEL-28, 72 h, 1 μg/ml): -20% | cytotoxicity at 72 h, 5 μg/ml ([4]; SK-MEL-28, 72 h, 5 μg/ml): 9.03% | cytotoxicity at 72 h, 10 μg/ml ([4]; SK-MEL-28, 72 h, 10 μg/ml): 6.16% | cytotoxicity at 72 h, 50 μg/ml ([4]; SK-MEL-28, 72 h, 50 μg/ml): -4.36% | cytotoxicity at 72 h, 100 μg/ml ([4]; SK-MEL-28, 72 h, 100 μg/ml): 5.78% | cytotoxicity at 72 h, 500 μg/ml ([4]; SK-MEL-28, 72 h, 500 μg/ml): 94% | cytotoxicity at 72 h, 1000 μg/ml ([4]; SK-MEL-28, 72 h, 1000 μg/ml): 91% | cytotoxicity at 72 h, 2000 μg/ml ([4]; SK-MEL-28, 72 h, 2000 μg/ml): 92% | IC50 ([5]; 24 h): > 700 µM | IC50 value ([5]; 24 h): >1000 µg/mL | Selectivity Index -IC50 (PBMC)/IC50 (HaCaT/SK-MEL-28 cells) ([5]; 24 h): ≤2 | IC50 ([5]; 72 h): 160 µM | Selectivity Index -IC50 (PBMC)/IC50 (HaCaT/SK-MEL-28 cells) ([5]; 72 h): 4 | IC50 value ([5]; SK-MEL-28, 72 h): 230 µg/mL | cytotoxicity ([5]; SK-MEL-28, 72 h, concentrations ≥0.5 mg/ml): > 90% | cytotoxic effects ([5]; SK-MEL-28, after 24 h of treatment): no cytotoxic effects | % induction of DNA fragmentation ([6]; 100 μg/ml): 15.09% | % induction of DNA fragmentation ([6]; 500 μg/ml): 22.64% | % induction of DNA fragmentation ([6]; 1000 μg/ml): 64.15% | % induction of DNA fragmentation ([6]; 2000 μg/ml): 56.60% | % induction of DNA fragmentation ([6]; 5000 μg/ml): 22.64% | overall effect on induction of DNA fragmentation with respect to untreated ([6]; Ea.hy.926, 48 h, 100 μg/ml to 5000 μg/ml): 15.09% to 64.15%
